Results from patent US20250313862A1, “INHIBITION OF GENOTOXIC STRESS TO IMPROVE T CELL ENGINEERING” (GENENTECH, INC., priority 2022, published 2025).
“Also recorded” adds a separate entry of the source. Counter-ions that a name gives are not always drawn.

Key:
[1] = tested on: human primary CD8+ T cells; assay: T cell viability 48 h post transfection (NucleoCounter NC-200); assay type: cell-based; conditions: for culture viability improvement compared to the untreated control group (CTR): 6 h pretreatment prior to transfection, 48 h-post transfection, on average (FIG. 6A)
Protocol: (§1) Peripheral blood mononuclear cells (PBMCs) were isolated from human cryopreserved leukopak using Ficoll gradient centrifugation ([…], 25 min). All samples were obtained from healthy donors genotyped with HLA A*02:01 MHC class I complex. Then CD8+ T cells were isolated using the Miltenyi AutoMACS cell separator according to the manufacturer's protocol. Isolated CD8+ T cells were then mixed with Miltenyi T cell TransACT reagent (1:100) (Catalog #130-111-160), 25 ng/mL IL-7 (Catalog #130-095-367), and 50 ng/mL IL-15 (Catalog #130-095-760) in Fuji Prime-XV medium (IrvineScientific Catalog #91154) for 48 h for activation.
(§2) Cells were electroporated with the 4D-Nucleofector System (Lonza) according to the manufacturer's protocol. After activation and inhibitor treatment, 10×10^6 (or 10 million) CD8+ T cells were washed and resuspended with Lonza P3 primary cell nucleofector solution (Catalog #V4XP-3024) and then mixed with pre-mixed RNP and DNA plasmid before transferring to Lonza 100-uL cuvette. After electroporation, 400 ul of FUJI Prime-XV medium was added to the cuvette and incubated for 15 min before seeding cells in culture flask. Pulse code used in this manuscript is EH115 for all circumstances.
(§3) All inhibitors were purchased from invivogen. Unless stated otherwise, cells were cultured with Fuji Prime-XV medium with 25 ng/ml IL-7 and 50 ng/ml IL-15 (Complete medium). After electroporation, T cells were carefully transferred to 24-well gREX (Wilsonwolf, Catalog: 80192M) at 1-2 million cells/cm^2 seeding density. 8 ml of complete medium were added per well and 50% of the medium was exchanged 6 days later. Cells were incubated at 37° C. and 5% CO2. The NucleoCounter NC-200 automated cell counter with the Via2-Casette were used in this study for cell counting and viability analysis.
(§4) Two days post activation, CD8+ T cells were washed and resuspended with FUJI Prime-XV complete medium containing inhibitors at the indicated concentrations for 6 h. After treatment, cells were washed and resuspended in Lonza P3 buffer prior to electroporation. Post transfection, T cells were cultured with FUJI Prime-XV complete medium without inhibitor.

[2] = tested on: human primary CD8+ T cells; assay: T cell expansion fold of final cell product, 15-day T cell engineering process; assay type: cell-based; conditions: for cell expansion of final T cell product: day 15, average
Protocol: as §1, §2, §3, §4

[3] = tested on: human primary CD8+ T cells; assay: Total edited cell (TEC) number in final drug product; assay type: cell-based; conditions: for TEC number: seeding 2 million cells, day 15, on average (FIG. 6C)
Excerpt: The total edited cell number (TECs) in the final drug product is arguably the most important metric for the adoptive cell transfer (ACT) and this, among a few other conditions, is considered one of the most important criteria for cell therapy purpose since it is expected to translate to the therapeutic impact in the clinic. Using the total cell number of the final cell product on day 15 multiplied by the percentage of knock-in, we get the TECs that are representative of our T cell engineering and culture output. With a starting seeding density of 2 million cells and without inhibitor treatment, as shown for the control conditions (CTR), the TEC numbers were approximately 5.24 million on average (FIG. 6C). However, when T cells were pre-treated with the indicated inhibitors, a significant increase in the output of TECs in all donors were observed (FIGS. 4C, 4F, 4I, FIGS. 5C, 5F), which was consistent with the cell expansion data.
as §2, §3
(§5) Dextramer antibodies for knock-in analysis were purchased from Immudex (Catalog: WB3469-PE, WT1) and used following manufacturer's protocol. Surface staining, CFSE staining, 7-AAD/annexin V staining, and intracellular staining were performed as previously described. Samples were analyzed using the BD FACSLyric flow cytometer (BD Biosciences) and FlowJo v10 software. For proliferation and cell killing assay, data were corrected by a negative control or target cell-only control.
as §4

[4] = tested on: human primary CD8+ T cells; assay: Knock-in/knock-out efficiency by flow cytometry (MHC-peptide dextramer and TCR staining); assay type: cell-based
Protocol: as §2, §5, §4

[5] = tested on: IRF3; assay: Western blot analysis of IRF3 phosphorylation post transfection; assay type: cell-based, human; conditions: pre-treatment at both medium and high concentrations (FIG. 8A)
Protocol: (§6) T cell pellets were collected, washed and stored as frozen pellets in −80° C. until use. Cell pellet processing, western blot experiments and data analysis were performed as previously described (Tang, J B C, 2020).
as §4

[6] = tested on: TBK1; assay: Western blot analysis of TBK1 phosphorylation post transfection; assay type: cell-based, human; conditions: post BX795 pre-treatment (FIG. 8A)
Protocol: as §6, §4

[7] = tested on: type 1 interferons (IFNa, IFNB) and proinflammatory cytokine (IL-6); assay: Cytokine expression by qPCR 6 h post transfection; assay type: cell-based, human
Protocol: (§7) RNeasy Mini Kit (Cat. #74106) was purchased from Qiagen. TaqMan RNA-to-CT 1-Step Kit (Cat. #4392938) and Taqman primer-probe assays with reporter dye FAM and MGB quenchers were purchased from Thermo Fisher (assay information listed in Table 4). After RNA isolation, 2 ng RNA was mixed with Taqman primer-probe mix, TaqMan RNA-to-CT 1-Step master mix, and RT enzyme mix in a 10 uL qPCR system according to the manufacturer's protocol. Reaction readings were measured using QuantStudio 6 Flex machine and data was analyzed using QuantStudio Real-Time PCR software v1.2. PCR cycling conditions were 50° C. for 30 min, 95° C. for 10 min, 40× cycles of 95° C. for 15 s, 60° C. for 1 min. All data points were collected in triplicates, using RNA18S as internal control (sample ID: #Hs03928990_g1).
as §4

[8] = tested on: cGAS-STING pathway; assay: cGAS-STING pathway activation in T cells (western blot and qPCR); assay type: cell-based, human; conditions: pretreatment prior to transfection (FIG. 8A); hydrochloride
Protocol: as §6, §7, §4

[9] = tested on: human primary CD8+ T cells; assay: T cell phenotype of final T cell product by flow cytometry (TSCM, TCM, TEM, TE); assay type: cell-based; conditions: pre-treatment prior to transfection; day 15; different donors; hydrochloride
Protocol: as §5, §4

[10] = tested on: human primary CD8+ T cells; assay: T cell activation and cytokine expression after 24 h WT1 peptide pulse (flow cytometry); assay type: cell-based; conditions: day 15 cells pulsed 24 h with WT1 peptide
Protocol: The cGAS-STING pathway is crucial in detecting and neutralizing genotoxic stress. It is a main component of innate immune system that can trigger inflammation in response to cytosolic DNA detection. […] Harvested T cells from inhibitor treated and control groups were pulsed for 24 h with indicated concentrations of a specific peptide (WT1), which binds to the engineered TCR. […] Another major concern is the exhaustion of the engineered T cell cultures. To measure levels of T cell exhaustion, the expression of exhaustion markers, such as Tim3 and PD-1, was evaluated.
as §5

[11] = tested on: human primary CD8+ T cells; assay: CFSE proliferation analysis, 72 h co-culture with WT1 peptide; assay type: cell-based; conditions: day 15 cells, WT1 peptide 72 h
Protocol: We next investigated proliferation of T cell after treatment with BX795. The final T cell product obtained from BX795 pre-treated or untreated groups were labeled with CFSE far-red, and co-cultured with WT1 peptide at the indicated concentrations for 72 h. […] T cells treated with higher concentration of WT1 peptide achieved high (˜60%) proliferation rates, implying the strong and antigen specific proliferation of the final T cell product. Finally, we compared T cells isolated from BX795 pre-treated as well as untreated control cultures in a target cell killing assay. Target cells T2 (T) were labeled with CFSE-far red, and then pulsed with 20 uM WT1 peptide before co-incubation with our final T cell product (E) at a ratio dependent manner. […] Of note, compared with the CTLs raised from conventional vaccine strategies, our T cells achieved high killing efficiency with much lower E:T ratio [19, 20], outlining the potential advantage of antigen-specific tumor cell killing of our TCR engineered T cells.
as §5, with “For proliferation and cell killing assay, data were corrected by a negative control or target cell-only control.” left out

[12] = tested on: TBK1; conditions: previous report [9]; cited from earlier work
[13] = BX795-M (mid dosage 2.5 uM), day 15

SMILES: CC(C)c1ccc2oc3nc(N)c(C(=O)O)cc3c(=O)c2c1 [Aml, 2-amino-5-oxo-7-propan-2-ylchromeno[2,3-b]pyridine-3-carboxylic acid]
- culture viability improvement compared to the untreated control group (CTR) ([1]; 25 uM): about 2 fold
- cell expansion of final T cell product ([2]; 25 uM pre-treatment): 14.5 fold
- average increase in TECs compared to the control group ([3]; 25 uM pre-treatment): 267.0%
- TEC number ([3]; 25 uM pre-treatment): 14.7 million

SMILES: O=C(NCCCNc1nc(Nc2cccc(NC(=O)N3CCCC3)c2)ncc1I)c1cccs1 [BX795, N-[3-[[5-iodo-4-[[3-[(2-thienylcarbonyl)amino]propyl]amino]-2-pyrimidinyl]amino]phenyl]-1- Pyrrolidinecarboxamide hydrochloride]
- culture viability improvement compared to the untreated control group (CTR) ([1]; 5 uM): about 2 fold
- % viability ([1]; 48 h post transfection, same donor as FIG. 8A (FIG. 8B)): higher % viability
- effectiveness in improving culture viability and growth among tested inhibitors ([1]; at 2.5 uM and 5 uM): most effective
- cell expansion of final T cell product ([2]; 5 uM pre-treatment): 20.3 fold
- T cell expansion rate ([2]; day 15, same donor as FIG. 8A (FIG. 8C)): increased T cell expansion rate
- inhibitor performance by electroporation pulse code ([2]; pulse code EH115 vs other pulse codes): performs better in EH115 groups
- average increase in TECs compared to the control group ([3]; 2.5 uM pre-treatment): 303.4%
- TEC number ([3]; 2.5 uM pre-treatment): 21.1 million
- TEC numbers ([3]; day 15, same donor as FIG. 8A): improved TEC numbers
- improvement in TEC compared to the control group ([3]; mid or high concentrations (2.5 uM and 5 um), statistically significant): more than 3 fold
- exogenous TCR expression (knock-in) over the culture process vs control group ([4]; 2.5 uM pre-treated, day 4 to day 15 (FIG. 14B, 14C), hydrochloride): increases exogenous TCR expression; also recorded: enhances cell editing efficiency (knock-in)
- knock-out efficiency in final cell product ([4]; BX795-H (high dosage 5 uM), day 15): 83.5%
- knock-in ratio in final cell product [4, 13]: 61%
- knock-out efficiency in final cell product [4, 13]: 86.7%
- KI/KO ratio ([4]; day 15, same donor as FIG. 8A): equal or better KI/KO ratio
- phosphorylation of IRF3 post transfection [5]: attenuated phosphorylation of IRF3
- TBK1 phosphorylation [6]: not attenuated and was actually enhanced
- levels of type 1 interferons (IFNa, IFNB) ([7]; BX795 removed prior to transfection): did not show a significant decrease
- downstream cytokine expression (IFNa, IFNB, IL-6) ([7]; pre-treatment, 6 h post transfection (FIG. 8F)): reduced
- cGAS/STING pathway activation [8]: considerable reduction in cGAS/STING pathway activation; also recorded: attenuates T cell cGAS-STING pathway
- T cell phenotype of final T cell product vs untreated control [9]: no impact on the final T cell product phenotype
- activation profile (CD137, IFNg, TNFa, Granzyme B expression) vs untreated control [10]: comparable activation profile
- T cell proliferation in response to antigen specific stimulation vs untreated [11]: comparable
- enhancement in TBK1 phosphorylation [12]: 2 fold

SMILES: O=C(NCCCNc1nc(Nc2cccc(CN3CCOCC3)c2)ncc1C1CC1)C1CCC1 [MRT, N-[3-[[5-cyclopropyl-2-[3-(morpholin-4-ylmethyl)anilino]pyrimidin-4-yl]amino]propyl] cyclobutanecarboxamide]
- culture viability improvement compared to the untreated control group (CTR) ([1]; 2.5 uM): about 2 fold
- cell expansion of final T cell product ([2]; 5 uM pre-treatment): 17.2 fold
- average increase in TECs compared to the control group ([3]; 5 uM pre-treatment): 180%
- TEC number ([3]; 5 uM pre-treatment): 17.4 million
